Paper PMC4828312 (Journal of neurochemistry, 2016)

Assays:
recombinant TUBB3 = recombinant TUBB3 (Homo sapiens, UniProt Q13509); assay: Surface plasmon resonance; format: binding; details: peptides injected at 10 nM – 500 µM; three independent experiments; Fig. 2D
cortical neurons [1] = assay: Length of neuronal processes; format: cell-based, rat; details: gp120s (all 5 nM) in combination with Helix-A peptide or Helix-A nano (5 µM each), 24 hr; three independent experiments
primary cortical neurons = assay: Cell viability, Hoechst/PI co-staining; format: cell-based, rat; details: gp120s in combination with Helix-A nano or Helix-A peptide, 24 hr; three separate experiments, n=200 neurons each group; Fig. 6A
tubulin dimer = assay: Surface plasmon resonance; format: binding, Porcine; details: peptides injected at 10 nM – 500 µM; three independent experiments; Fig. 2D
cortical neurons [2] = assay: LDH release; format: cell-based, rat; details: gp120s in combination with Helix-A nano or Helix-A peptide, 24 hr; three separate experiments; Fig. 6B
[3] = target: assembled MTs (containing ~25% of TUBB3); assay: Surface plasmon resonance; format: binding, Porcine; details: peptides injected at 10 nM – 500 µM; three independent experiments; Fig. 2D
CXCR4 = details: cited from earlier work

Chain of recombinant TUBB3 (Q13509 whole entry): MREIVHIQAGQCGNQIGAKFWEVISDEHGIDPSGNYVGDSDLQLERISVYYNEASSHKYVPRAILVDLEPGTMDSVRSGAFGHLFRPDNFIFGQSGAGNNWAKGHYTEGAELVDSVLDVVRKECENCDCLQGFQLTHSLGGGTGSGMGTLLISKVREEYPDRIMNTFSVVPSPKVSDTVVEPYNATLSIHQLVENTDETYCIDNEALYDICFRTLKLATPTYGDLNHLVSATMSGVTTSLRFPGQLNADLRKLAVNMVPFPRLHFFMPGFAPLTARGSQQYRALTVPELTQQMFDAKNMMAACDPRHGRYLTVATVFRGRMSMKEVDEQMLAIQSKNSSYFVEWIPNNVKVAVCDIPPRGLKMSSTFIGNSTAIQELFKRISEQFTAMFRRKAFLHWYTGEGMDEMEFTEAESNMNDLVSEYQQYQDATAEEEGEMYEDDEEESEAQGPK

## RAKWNNTLKQIASK [Helix-B]
Recombinant TUBB3
  Binding of peptide to TUBB3 by SPR: but not Helix-B peptide binds to TUBB3

## NDMVEQMHEDIISLWDQSLK [Helix-A]
Cortical neurons [1]
  Prevention of gp120-mediated neurite pruning: but not Helix-A peptide prevented the gp120-mediated neurite pruning
Primary cortical neurons
  Prevention of gp120-induced neuronal loss, Hoechst/PI staining: but not Helix-A peptide abolished all neurotoxic effects of gp120
Tubulin dimer
  Binding of peptide to tubulin dimer by SPR: in the higher micromole range
Cortical neurons [2]
  Prevention of gp120-induced neuronal loss, LDH release: but not Helix-A peptide abolished all neurotoxic effects of gp120
[3]
  Binding of peptide to assembled MTs by SPR: in the higher micromole range

## c1cc(CN2CCCNCCNCCCNCC2)ccc1CN1CCCNCCNCCCNCC1 [AMD3100]
CXCR4; ref Bachis et al. 2003
  Internalization of gp120: bloked
CXCR4; ref Melli et al. 2006, Meucci et al. 1998
  gp120 toxicity: prevents gp120 toxicity
